According to patent EP3002287B1, “Thiochromeno[2,3-c]quinolin-12-one derivatives and their use as topoisomerase inhibitors” (National Defense Medical Center, priority 2014, dated 2016):

How the values were obtained:
DU-145 [1] = test: MTT assay for cell cytotoxicity; format: cell-based, human; settings: Homo sapiens, 72 h, at least three independent experiments, read-out: MTT assay (IC50 ± SD) DU-145
Protocol: (§1) All of synthesis compounds were evaluated cell cytotoxicity by using MTT colorimetric assay on PC-3 and DU-145 cell lines. DU-145 and PC-3 are human hormone-refractory (androgen-independent) prostatic cancer cell lines from American Type Culture Collection (HTB-81™, ATCC, Rockville, MD)^125 and Bioresource Collection and Research Center (60122, BCRC, Taiwan)^126, respectively. Two of the "classical" cell lines were cultivated in RPMI-1640 medium supplemented with 5% fetal bovine serum (v/v), 100 U/mL penicillin, and […] streptomycin. Approximately 2 x 10^3 cells were seeded into each well of a 96-well plate and incubated in 5% CO2 at 37 °C for 24 h. To evaluate the in vitro cytotoxicity, all the synthetic compounds were dissolved in DMSO, prepared immediately before the experiments and diluted into the complete medium before being added to each well of a 96-well plate. Each compound was then added to the culture medium for designated various concentrations (0.15, 0.5, 1.5, 5, 15 µM). After 72 h, an amount of 100 µL of MTT (1 mg/mL) was added to each well, and the samples were incubated at 37 °C for 4 h. After removing the MTT solution, 100 µL of DMSO was added to each well and incubated at 37 °C for another 20 mins. The absorbency at 560 nm was measured by using an ELISA reader.
(§2) Results are expressed as mean values of at least three independent experiments. The IC50 values of testing compounds were described in Table 1. Table1. Effects of 10-Chloro-12H-thiochromeno[2,3-c]quinolin -12-one derivatives on cytotoxicity by MTT assay.

PC-3 [2] = test: MTT assay for cell cytotoxicity; format: cell-based, human; settings: Homo sapiens, 72 h, at least three independent experiments, read-out: MTT assay (IC50 ± SD) PC-3
Protocol: as §1, §2

HL-60(TB) = test: NCI in vitro 60-cell drug screen (SRB assay); format: cell-based; settings: HL-60(TB) (Leukemia); 10^-5 molar concentration; 48 hours
RPMI-8226 = test: NCI in vitro 60-cell drug screen (SRB assay); format: cell-based; settings: RPMI-8226 (Leukemia); 10^-5 molar concentration; 48 hours
NCI-H226 = test: NCI in vitro 60-cell drug screen (SRB assay); format: cell-based; settings: NCI-H226 (Non-small cell lung cancer); 10^-5 molar concentration; 48 hours
NCI-H23 = test: NCI in vitro 60-cell drug screen (SRB assay); format: cell-based; settings: NCI-H23 (Non-small cell lung cancer); 10^-5 molar concentration; 48 hours
NCI-H460 = test: NCI in vitro 60-cell drug screen (SRB assay); format: cell-based; settings: NCI-H460 (Non-small cell lung cancer); 10^-5 molar concentration; 48 hours
NCI-H522 = test: NCI in vitro 60-cell drug screen (SRB assay); format: cell-based; settings: NCI-H522 (Non-small cell lung cancer); 10^-5 molar concentration; 48 hours
HT29 = test: NCI in vitro 60-cell drug screen (SRB assay); format: cell-based; settings: HT29 (Colon cancer); 10^-5 molar concentration; 48 hours
SF-539 = test: NCI in vitro 60-cell drug screen (SRB assay); format: cell-based; settings: SF-539 (CNS cancer); 10^-5 molar concentration; 48 hours
SNB-19 = test: NCI in vitro 60-cell drug screen (SRB assay); format: cell-based; settings: SNB-19 (CNS cancer); 10^-5 molar concentration; 48 hours
SNB-75 = test: NCI in vitro 60-cell drug screen (SRB assay); format: cell-based; settings: SNB-75 (CNS cancer); 10^-5 molar concentration; 48 hours
LOX IMVI = test: NCI in vitro 60-cell drug screen (SRB assay); format: cell-based; settings: LOX IMVI (Melanoma); 10^-5 molar concentration; 48 hours
OVCAR-3 = test: NCI in vitro 60-cell drug screen (SRB assay); format: cell-based; settings: OVCAR-3 (Ovarian cancer); 10^-5 molar concentration; 48 hours
OVCAR-4 = test: NCI in vitro 60-cell drug screen (SRB assay); format: cell-based; settings: OVCAR-4 (Ovarian cancer); 10^-5 molar concentration; 48 hours
OVCAR-5 = test: NCI in vitro 60-cell drug screen (SRB assay); format: cell-based; settings: OVCAR-5 (Ovarian cancer); 10^-5 molar concentration; 48 hours
OVCAR-8 = test: NCI in vitro 60-cell drug screen (SRB assay); format: cell-based; settings: OVCAR-8 (Ovarian cancer); 10^-5 molar concentration; 48 hours
NCI/ADR-RES = test: NCI in vitro 60-cell drug screen (SRB assay); format: cell-based; settings: NCI/ADR-RES (Ovarian cancer); 10^-5 molar concentration; 48 hours
SK-OV-3 = test: NCI in vitro 60-cell drug screen (SRB assay); format: cell-based; settings: SK-OV-3 (Ovarian cancer); 10^-5 molar concentration; 48 hours
786-0 = test: NCI in vitro 60-cell drug screen (SRB assay); format: cell-based; settings: 786-0 (Renal cancer); 10^-5 molar concentration; 48 hours
RXF 393 = test: NCI in vitro 60-cell drug screen (SRB assay); format: cell-based; settings: RXF 393 (Renal cancer); 10^-5 molar concentration; 48 hours
SN12C = test: NCI in vitro 60-cell drug screen (SRB assay); format: cell-based; settings: SN12C (Renal cancer); 10^-5 molar concentration; 48 hours
PC-3 [3] = test: NCI in vitro 60-cell drug screen (SRB assay); format: cell-based; settings: PC-3 (Prostate cancer); 10^-5 molar concentration; 48 hours
DU-145 [4] = test: NCI in vitro 60-cell drug screen (SRB assay); format: cell-based; settings: DU-145 (Prostate cancer); 10^-5 molar concentration; 48 hours
HS 578T = test: NCI in vitro 60-cell drug screen (SRB assay); format: cell-based; settings: HS 578T (Breast cancer); 10^-5 molar concentration; 48 hours

O=c1c2ccc(Cl)cc2sc2c(Cl)nc3ccccc3c12 [Compound 3, 6,9-Dichloro-12H-thiochromeno[2,3-c]quinolin-12-one]
IC50 (DU-145 [1]): > 15 µM
IC50 (PC-3 [2]): > 15 µM
Growth percent (HL-60(TB)): 99.34%
Growth percent (RPMI-8226): 100.19%
Growth percent (NCI-H226): 83.41%
Growth percent (NCI-H23): 85.12%
Growth percent (NCI-H460): 103.14%
Growth percent (NCI-H522): 96.81%
Growth percent (HT29): 99.73%
Growth percent (SF-539): 89.02%
Growth percent (SNB-19): 107.89%
Growth percent (SNB-75): 77.88%
Growth percent (LOX IMVI): 90.53%
Growth percent (OVCAR-3): 111.27%
Growth percent (OVCAR-4): 87.91%
Growth percent (OVCAR-5): 100.07%
Growth percent (OVCAR-8): 101.62%
Growth percent (NCI/ADR-RES): 102.80%
Growth percent (SK-OV-3): 101.32%
Growth percent (786-0): 105.25%
Growth percent (RXF 393): 102.55%
Growth percent (SN12C): 95.92%
Growth percent (PC-3 [3]): 91.59%
Growth percent (DU-145 [4]): 114.27%
Growth percent (HS 578T): 95.14%

O=c1c2cc(Cl)ccc2sc2c(O)nc3ccccc3c12 [Compound 4, 10-Chloro-6-hydroxy-12H-thiochromeno[2,3-c]quinolin-12-one]
IC50 (DU-145 [1]): > 15 µM
IC50 (PC-3 [2]): 10.1 ± 1.81 µM
Growth percent (HL-60(TB)): 109.82%
Growth percent (RPMI-8226): 100.99%
Growth percent (NCI-H226): 99.58%
Growth percent (NCI-H23): 88.96%
Growth percent (NCI-H460): 96.92%
Growth percent (NCI-H522): 86.60%
Growth percent (HT29): 96.78%
Growth percent (SF-539): 93.21%
Growth percent (SNB-19): 101.37%
Growth percent (SNB-75): 66.63%
Growth percent (LOX IMVI): 92.07%
Growth percent (OVCAR-3): 106.37%
Growth percent (OVCAR-5): 111.17%
Growth percent (OVCAR-8): 100.55%
Growth percent (NCI/ADR-RES): 96.84%
Growth percent (SK-OV-3): 94.40%
Growth percent (786-0): 99.76%
Growth percent (RXF 393): 116.94%
Growth percent (SN12C): 101.14%
Growth percent (PC-3 [3]): 91.90%
Growth percent (DU-145 [4]): 99.80%
Growth percent (HS 578T): 113.28%

COc1nc2ccccc2c2c(=O)c3cc(Cl)ccc3sc12 [Compound 5, 10-Chloro-6-methoxy-12H-thiochromeno[2,3-c]quinolin-12-one]
IC50 (DU-145 [1]): 10.8 ± 6.55 µM
IC50 (PC-3 [2]): 3.89 ± 0.54 µM
Growth percent (HL-60(TB)): 89.47%
Growth percent (RPMI-8226): 102.86%
Growth percent (NCI-H226): 98.57%
Growth percent (NCI-H23): 80.14%
Growth percent (NCI-H460): 101.23%
Growth percent (NCI-H522): 92.71%
Growth percent (HT29): 102.69%
Growth percent (SF-539): 86.13%
Growth percent (SNB-19): 89.36%
Growth percent (SNB-75): 52.28%
Growth percent (LOX IMVI): 91.21%
Growth percent (OVCAR-3): 96.60%
Growth percent (OVCAR-5): 106.70%
Growth percent (OVCAR-8): 91.82%
Growth percent (NCI/ADR-RES): 96.10%
Growth percent (SK-OV-3): 58.94%
Growth percent (786-0): 99.15%
Growth percent (RXF 393): 109.68%
Growth percent (SN12C): 98.74%
Growth percent (PC-3 [3]): 92.46%
Growth percent (DU-145 [4]): 104.27%
Growth percent (HS 578T): 66.51%

CN(C)c1nc2ccccc2c2c(=O)c3cc(Cl)ccc3sc12 [Compound 6, 10-Chloro-6-dimethylamino-12H-thiochromeno[2,3-c]quinolin-12-one]
IC50 (DU-145 [1]): > 15 µM
IC50 (PC-3 [2]): > 15 µM
Growth percent (HL-60(TB)): 107.16%
Growth percent (RPMI-8226): 98.20%
Growth percent (NCI-H226): 96.20%
Growth percent (NCI-H23): 77.00%
Growth percent (NCI-H460): 88.86%
Growth percent (NCI-H522): 70.42%
Growth percent (HT29): 87.73%
Growth percent (SF-539): 72.72%
Growth percent (SNB-19): 76.46%
Growth percent (SNB-75): 15.29%
Growth percent (LOX IMVI): 86.53%
Growth percent (OVCAR-3): 79.65%
Growth percent (OVCAR-5): 98.05%
Growth percent (OVCAR-8): 68.53%
Growth percent (NCI/ADR-RES): 87.86%
Growth percent (SK-OV-3): 41.57%
Growth percent (786-0): 87.00%
Growth percent (RXF 393): 83.17%
Growth percent (SN12C): 99.49%
Growth percent (PC-3 [3]): 81.25%
Growth percent (DU-145 [4]): 92.93%
Growth percent (HS 578T): 60.38%

CN1CCN(c2nc3ccccc3c3c(=O)c4cc(Cl)ccc4sc23)CC1 [Compound 8, 10-Chloro-6-(4-methylpiperazin-1-yl)-12H-thiochromeno[2,3-c]q uinolin-12-one]
IC50 (DU-145 [1]): 12.9 ± 0.26 µM
IC50 (PC-3 [2]): 7.18 ± 2.45 µM
Growth percent (HL-60(TB)): 96.19%
Growth percent (RPMI-8226): 91.11%
Growth percent (NCI-H226): 85.67%
Growth percent (NCI-H23): 81.11%
Growth percent (NCI-H460): 96.05%
Growth percent (NCI-H522): 98.78%
Growth percent (HT29): 78.65%
Growth percent (SF-539): 85.30%
Growth percent (SNB-19): 87.07%
Growth percent (SNB-75): 42.15%
Growth percent (LOX IMVI): 87.47%
Growth percent (OVCAR-3): 89.13%
Growth percent (OVCAR-4): 94.93%
Growth percent (OVCAR-5): 98.14%
Growth percent (OVCAR-8): 89.44%
Growth percent (NCI/ADR-RES): 81.35%
Growth percent (SK-OV-3): 75.11%
Growth percent (786-0): 90.48%
Growth percent (RXF 393): 88.57%
Growth percent (SN12C): 83.03%
Growth percent (PC-3 [3]): 84.81%
Growth percent (DU-145 [4]): 103.45%
Growth percent (HS 578T): 65.57%

O=c1c2cc(Cl)ccc2sc2c(N3CCN(CCO)CC3)nc3ccccc3c12 [Compound 10, 10-Chloro-6-(4-(2-hydroxyethyl)piperazin-1-yl)-12H-thiochrom eno[2,3-c]quinolin-12one]
IC50 (DU-145 [1]): > 15 µM
IC50 (PC-3 [2]): > 15 µM
Growth percent (HL-60(TB)): 93.81%
Growth percent (RPMI-8226): 84.87%
Growth percent (NCI-H226): 89.29%
Growth percent (NCI-H23): 84.75%
Growth percent (NCI-H460): 93.71%
Growth percent (NCI-H522): 94.76%
Growth percent (HT29): 63.19%
Growth percent (SF-539): 86.18%
Growth percent (SNB-19): 84.81%
Growth percent (SNB-75): 77.64%
Growth percent (LOX IMVI): 87.79%
Growth percent (OVCAR-3): 93.92%
Growth percent (OVCAR-4): 85.35%
Growth percent (OVCAR-5): 95.70%
Growth percent (OVCAR-8): 84.95%
Growth percent (NCI/ADR-RES): 92.05%
Growth percent (SK-OV-3): 95.12%
Growth percent (786-0): 85.58%
Growth percent (RXF 393): 70.31%
Growth percent (SN12C): 86.81%
Growth percent (PC-3 [3]): 77.99%
Growth percent (DU-145 [4]): 96.26%
Growth percent (HS 578T): 76.01%
